This note sets out measurements from US8889666B2, “Quinolyl pyrrolo pyrimidyl condensed-ring compound and salt thereof” (Taiho Pharmaceutical Co., Ltd., priority 2012, dated 2014).

One experiment has as its target T1, EGFR (d746-750) (Homo sapiens, UniProt P00533, DEL746-750).
T1 construct: purchased Carna Biosciences, Inc
The experiment can be described thus: EGFR (d746-750) kinase inhibitory activity (in vitro). As to conditions: recombinant human protein, ATP 5 μM, 90 minutes. The class given is biochemical. The method, then:
(§1) The measurement method was as follows. The compounds I-1, I-2, I-3, I-4, I-5, I-6, I-7, I-8, and I-9 were each dissolved in dimethylsulfoxide (DMSO), and then each serially diluted with DMSO. Next, the EGFR (T790M/L858R) protein, substrate peptide (final concentration: 250 nM), magnesium chloride (final concentration: 10 mM), manganese chloride (final concentration: 10 mM), ATP (final concentration: 1 μM), and the diluted DMSO solution of each compound (final concentration of DMSO: 2.5%) were added to a kinase reaction buffer (Carna Biosciences, Inc.), and the mixture was incubated at 25° C. for 120 minutes for kinase reaction. EDTA was added thereto to a final concentration of 24 mM to thereby terminate the reaction. Then, a detection solution containing europium (Eu)-labeled anti-phosphorylated tyrosine antibody PT66 (PerkinElmer) and SureLight APC-SA (PerkinElmer) was added, and the resulting mixture was allowed to stand at room temperature for 2 hours or more. Finally, the intensity of fluorescence under the excitation light with a wavelength of 337 nm was measured by a PHERAstar FS (BMG LABTECH) at two wavelengths of 620 nm and 665 nm. The level of phosphorylation of each test sample was calculated from the fluorescence intensity ratio of the two wavelengths in DMSO control and in the test sample, and the compound concentration at which phosphorylation was inhibited by 50% was determined as the IC50 value (nM) of each compound.
4) Measurement of EGFR (d746-750) Kinase Inhibitory Activity
The inhibitory activities of the compounds I-1, I-2, I-3, I-4, I-5, I-6, I-7, I-8, and I-9 for EGFR (d746-750) kinase activity were measured.
The materials were as follows. The EGFR (d746-750) was a purified recombinant human EGFR (d746-750) protein purchased from Carna Biosciences, Inc. The final concentration of ATP was 5 μM. The incubation time for the kinase reaction was 90 minutes. As for other conditions, the same materials and methods as those used in the measurement of EGFR (T790M/L858R) kinase inhibitory activity were used to determine the IC50 value (nM) of each compound.

The target in the next experiment is T2, EGFR (WT) (Homo sapiens, UniProt P00533).
T2 construct: the cytoplasmic domain of human EGFR (WT); FLAG (N); made in house; host or cells: baculovirus expression system, insect Sf9 cells
The experiment can be described thus: EGFR (WT) kinase inhibitory activity (in vitro). The class given is biochemical. The conditions noted are these: for IC50: cytoplasmic domain of human EGFR (WT), ATP 4.7 μM, substrate peptide 500 nM; for inhibitory activities for EGFR (WT) compared with the mutant EGFR proteins, in words: summary of Table 1. The procedure:
as §1
The inhibitory activities of the compounds I-1, I-2, I-3, I-4, I-5, I-6, I-7, I-8, and I-9 on EGFR (WT) kinase were measured.
The materials were as follows. As the EGFR (WT), the cytoplasmic domain of human EGFR (WT) in which a FLAG tag was fused to the N-terminus was expressed in a baculovirus expression system using insect Sf9 cells, and purified with anti-FLAG antibody agarose (Sigma-Aldrich). The final concentration of the substrate peptide was 500 nM, and the final concentration of ATP was 4.7 μM. As for other conditions, the same materials and methods as those used in the measurement of EGFR (T790M/L858R) kinase inhibitory activity were used to determine the IC50 value (nM) of each compound.

A further experiment concerns the target T3, EGFR (T790M/L858R) (Homo sapiens, UniProt P00533, L858R/T790M).
T3 construct: purchased Carna Biosciences, Inc
The experiment can be described thus: EGFR (T790M/L858R) kinase inhibitory activity (in vitro). It is filed as biochemical. As to conditions: for IC50: recombinant human protein, ATP 1 μM, 120 minutes; for inhibitory activities for EGFR (L858R), EGFR (d746-750), EGFR (T790M/L858R) and EGFR (d746-750/T790M), in words: summary of Table 1, all four mutant kinases. The method, then: 1) Measurement of EGFR (T790M/L858R) Kinase Inhibitory Activity
The inhibitory activities of the compounds I-1, I-2, I-3, I-4, I-5, I-6, I-7, I-8, and I-9 for EGFR (T790M/L858R) kinase were measured.
The materials were as follows. The substrate peptide was a biotinylated peptide (biotin-EEPLYWSFPAKKK) synthesized by reference to the amino acid sequence of FL-Peptide 22 (a reagent for LabChip® Series; Caliper Life Sciences, Inc.). The EGFR (T790M/L858R) was a purified recombinant human EGFR (T790M/L858R) protein purchased from Carna Biosciences, Inc.
as §1

A further experiment has as its target T4, EGFR (d746-750/T790M) (Homo sapiens, UniProt P00533, DEL746-750/T790M).
T4 construct: purchased Carna Biosciences, Inc
The experiment can be described thus: EGFR (d746-750/T790M) kinase inhibitory activity (in vitro). It is filed as biochemical. The conditions noted are these: recombinant human protein, ATP 1.5 μM. The method, then: as §1
2) Measurement of EGFR (d746-750/T790M) Kinase Inhibitory Activity
The inhibitory activities of the compounds I-1, I-2, I-3, I-4, I-5, I-6, I-7, I-8, and I-9 for EGFR (d746-750/T790M) kinase were measured.
The materials were as follows. The EGFR (d746-750/T790M) was a purified recombinant human EGFR (d746-750/T790M) protein purchased from Carna Biosciences, Inc. The final concentration of ATP was 1.5 μM. As for other conditions, the same materials and methods as those used in the measurement of EGFR (T790M/L858R) kinase inhibitory activity were used to determine the IC50 value (nM) of each compound.

For a further experiment, the target named is T5, EGFR (L858R) (Homo sapiens, UniProt P00533, L858R).
T5 construct: purchased Carna Biosciences, Inc
The experiment can be described thus: EGFR (L858R) kinase inhibitory activity (in vitro). The class given is biochemical. As to conditions: recombinant human protein, ATP 4 μM. The method, then: as §1
3) Measurement of EGFR (L858R) Kinase Inhibitory Activity
The inhibitory activities of the compounds I-1, I-2, I-3, I-4, I-5, I-6, I-7, I-8, and I-9 for EGFR (L858R) kinase were measured.
The materials were as follows. The EGFR (L858R) was a purified recombinant human EGFR (L858R) protein purchased from Carna Biosciences, Inc. The final concentration of ATP was 4 μM. As for other conditions, the same materials and methods as those used in the measurement of EGFR (T790M/L858R) kinase inhibitory activity were used to determine the IC50 value (nM) of each compound.

For experiment [1], the system named is human epidermoid carcinoma cell line A431 expressing EGFR (WT). The experiment can be described thus: Growth inhibitory activity, EGFR (WT)-expressing cell line. The conditions noted are these: for GI50: Homo sapiens, A-431, 72 h, three days culture, CellTiter-Glo; for growth-inhibitory activities for EGFR (WT)-expressing cells compared with cells expressing mutant EGFRs, in words: summary of Table 2. The class given is cell-based. The method, then:
(§2) 1) A lung adenocarcinoma cell line NCI-H1975 expressing EGFR (T790M/L858R), 2) a lung adenocarcinoma cell line HCC827 expressing EGFR (d746-750), and 3) a human epidermoid carcinoma cell line A431 expressing EGFR (WT) were each suspended in the medium recommended by ATCC. The cell suspension was seeded in each well of a 384-well flat microplate or 96-well flat plate, and cultured in an incubator containing 5% carbon dioxide gas at 37° C. for one day. The compound of the present invention and the reference compound were dissolved in DMSO, and then the DMSO solution of each test compound was diluted with DMSO to a concentration 200 times higher than the final concentration. The diluted DMSO solution of the test compound was diluted with the medium used to suspend each cell line, and the diluted solution was added to each well of the cell culture plate so that the final concentration of DMSO was 0.5%. Then, the cells were cultured in an incubator containing 5% carbon dioxide gas at 37° C. for three days. The number of cells was measured at the time of initiation and termination of the culture by using a CellTiter-Glo Assay (produced by Promega) according to a protocol recommended by Promega. The cell growth inhibition rate was calculated by the following formula, and the concentration of the test compound at which the cell growth was inhibited by 50% (GI50 (nM)) was determined. Growth inhibition rate (%)=(C−T)/(C−C0)×100
(§3) T: Luminescence intensity of well to which test compound was added
(§4) C: Luminescence intensity of well to which test compound was not added
(§5) C0: Luminescence intensity of well measured before addition of test compound
In general terms: ATP-based viability assays read luminescence as a measure of living cells.

In experiment [2] the test system is lung adenocarcinoma cell line NCI-H1975 expressing EGFR (T790M/L858R). The experiment can be described thus: Growth inhibitory activity, EGFR (T790M/L858R)-expressing cell line. As to conditions: for GI50: Homo sapiens, NCI-H1975, 72 h, three days culture, CellTiter-Glo; for growth-inhibitory activities for EGFR (d746-750)-expressing and EGFR (T790M/L858R)-expressing cells, in words: summary of Table 2, NCI-H1975 and HCC827. It is filed as cell-based, human. The procedure: as §2, §3, §4, §5

The subject of experiment [3] is lung adenocarcinoma cell line HCC827 expressing EGFR (d746-750). The experiment can be described thus: Growth inhibitory activity, EGFR (d746-750)-expressing cell line. The class given is cell-based. As to conditions: Homo sapiens, HCC827, 72 h; three days culture, CellTiter-Glo. The method, then: as §2, with “Then, the cells were cultured in an incubator containing 5% carbon dioxide gas at 37° C. for three days.” left out, “The cell growth inhibition rate was calculated by the following formula, and the concentration of the test compound at which the cell growth was inhibited by 50% (GI50 (nM)) was determined. Growth inhibition rate (%)=(C−T)/(C−C0)×100” left out
as §3, §4, §5

T1 sequence (P00533 with tags, fused parts or gaps DEL746-750 limits assumed): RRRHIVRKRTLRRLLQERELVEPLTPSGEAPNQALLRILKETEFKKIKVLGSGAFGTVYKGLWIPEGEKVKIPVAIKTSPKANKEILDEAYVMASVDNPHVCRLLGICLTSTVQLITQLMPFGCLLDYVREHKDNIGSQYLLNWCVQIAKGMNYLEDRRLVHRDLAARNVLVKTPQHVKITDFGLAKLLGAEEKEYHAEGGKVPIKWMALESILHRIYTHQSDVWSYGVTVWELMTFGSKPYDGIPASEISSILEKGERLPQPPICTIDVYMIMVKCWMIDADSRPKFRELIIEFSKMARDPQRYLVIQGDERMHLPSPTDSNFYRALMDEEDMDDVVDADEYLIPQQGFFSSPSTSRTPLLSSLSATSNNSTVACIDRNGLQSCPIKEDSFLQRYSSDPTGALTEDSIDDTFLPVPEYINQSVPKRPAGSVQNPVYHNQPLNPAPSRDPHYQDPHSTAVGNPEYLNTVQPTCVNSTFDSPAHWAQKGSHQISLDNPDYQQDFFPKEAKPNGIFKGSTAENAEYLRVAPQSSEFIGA
T4 sequence (P00533 with tags, fused parts or gaps DEL746-750/T790M limits assumed): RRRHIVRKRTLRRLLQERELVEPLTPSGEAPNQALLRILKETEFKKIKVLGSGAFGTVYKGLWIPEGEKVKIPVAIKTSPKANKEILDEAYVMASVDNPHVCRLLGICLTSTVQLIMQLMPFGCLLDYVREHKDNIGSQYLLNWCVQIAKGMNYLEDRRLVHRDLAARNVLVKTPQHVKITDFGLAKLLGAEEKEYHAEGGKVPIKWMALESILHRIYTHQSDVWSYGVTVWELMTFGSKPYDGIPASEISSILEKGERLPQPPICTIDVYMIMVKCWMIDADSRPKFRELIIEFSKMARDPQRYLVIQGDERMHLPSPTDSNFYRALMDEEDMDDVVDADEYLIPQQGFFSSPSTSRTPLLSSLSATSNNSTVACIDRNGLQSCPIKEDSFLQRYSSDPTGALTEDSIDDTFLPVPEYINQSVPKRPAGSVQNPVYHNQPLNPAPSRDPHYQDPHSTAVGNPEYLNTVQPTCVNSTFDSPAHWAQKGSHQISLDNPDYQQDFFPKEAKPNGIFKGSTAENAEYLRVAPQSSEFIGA
T2 sequence (P00533 669-1210 limits assumed): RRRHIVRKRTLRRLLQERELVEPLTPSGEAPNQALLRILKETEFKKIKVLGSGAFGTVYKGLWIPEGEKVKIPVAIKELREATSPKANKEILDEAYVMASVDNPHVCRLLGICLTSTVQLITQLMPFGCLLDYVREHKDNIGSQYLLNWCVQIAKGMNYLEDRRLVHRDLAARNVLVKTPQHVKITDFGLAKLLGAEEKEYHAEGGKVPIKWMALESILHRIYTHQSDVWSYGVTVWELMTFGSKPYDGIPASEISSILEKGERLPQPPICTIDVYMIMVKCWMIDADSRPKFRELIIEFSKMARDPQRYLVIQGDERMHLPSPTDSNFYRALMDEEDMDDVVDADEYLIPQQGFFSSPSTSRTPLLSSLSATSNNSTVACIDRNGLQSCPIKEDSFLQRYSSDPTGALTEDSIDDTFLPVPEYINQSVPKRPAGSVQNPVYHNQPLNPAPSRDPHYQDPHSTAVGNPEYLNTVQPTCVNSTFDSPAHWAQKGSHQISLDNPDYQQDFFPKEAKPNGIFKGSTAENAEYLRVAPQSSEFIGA
T3 sequence (P00533 25-1210 T790M/L858R): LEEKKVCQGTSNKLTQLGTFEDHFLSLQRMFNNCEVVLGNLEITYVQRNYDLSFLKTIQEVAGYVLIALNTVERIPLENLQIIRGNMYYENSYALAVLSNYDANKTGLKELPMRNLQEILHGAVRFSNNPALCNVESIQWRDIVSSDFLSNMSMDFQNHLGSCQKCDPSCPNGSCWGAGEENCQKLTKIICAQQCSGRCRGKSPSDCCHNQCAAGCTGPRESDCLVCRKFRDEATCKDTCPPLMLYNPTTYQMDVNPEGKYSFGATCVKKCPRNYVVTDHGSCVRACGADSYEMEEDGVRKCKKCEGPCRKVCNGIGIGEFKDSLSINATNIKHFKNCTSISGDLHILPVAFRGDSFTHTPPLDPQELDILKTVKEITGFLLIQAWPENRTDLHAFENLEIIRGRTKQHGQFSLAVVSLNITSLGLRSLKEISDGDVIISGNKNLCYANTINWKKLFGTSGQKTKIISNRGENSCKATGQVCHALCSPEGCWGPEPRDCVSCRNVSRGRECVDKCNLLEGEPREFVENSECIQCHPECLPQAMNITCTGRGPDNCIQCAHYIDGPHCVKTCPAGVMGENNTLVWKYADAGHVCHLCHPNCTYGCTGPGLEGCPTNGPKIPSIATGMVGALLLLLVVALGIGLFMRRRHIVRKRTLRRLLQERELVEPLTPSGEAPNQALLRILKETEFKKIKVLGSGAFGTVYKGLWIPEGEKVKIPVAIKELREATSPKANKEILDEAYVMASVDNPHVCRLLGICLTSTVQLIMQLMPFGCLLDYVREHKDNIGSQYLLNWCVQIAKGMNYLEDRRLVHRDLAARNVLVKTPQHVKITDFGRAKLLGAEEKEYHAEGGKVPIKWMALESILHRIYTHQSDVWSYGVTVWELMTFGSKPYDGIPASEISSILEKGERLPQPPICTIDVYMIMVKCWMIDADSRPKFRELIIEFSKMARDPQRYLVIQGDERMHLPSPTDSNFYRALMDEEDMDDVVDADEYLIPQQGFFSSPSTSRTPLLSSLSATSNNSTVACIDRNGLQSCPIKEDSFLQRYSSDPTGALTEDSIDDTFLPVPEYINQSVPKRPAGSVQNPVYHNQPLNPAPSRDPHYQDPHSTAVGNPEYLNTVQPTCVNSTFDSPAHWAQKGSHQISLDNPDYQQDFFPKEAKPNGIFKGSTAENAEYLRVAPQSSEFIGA
T5 sequence (P00533 25-1210 L858R): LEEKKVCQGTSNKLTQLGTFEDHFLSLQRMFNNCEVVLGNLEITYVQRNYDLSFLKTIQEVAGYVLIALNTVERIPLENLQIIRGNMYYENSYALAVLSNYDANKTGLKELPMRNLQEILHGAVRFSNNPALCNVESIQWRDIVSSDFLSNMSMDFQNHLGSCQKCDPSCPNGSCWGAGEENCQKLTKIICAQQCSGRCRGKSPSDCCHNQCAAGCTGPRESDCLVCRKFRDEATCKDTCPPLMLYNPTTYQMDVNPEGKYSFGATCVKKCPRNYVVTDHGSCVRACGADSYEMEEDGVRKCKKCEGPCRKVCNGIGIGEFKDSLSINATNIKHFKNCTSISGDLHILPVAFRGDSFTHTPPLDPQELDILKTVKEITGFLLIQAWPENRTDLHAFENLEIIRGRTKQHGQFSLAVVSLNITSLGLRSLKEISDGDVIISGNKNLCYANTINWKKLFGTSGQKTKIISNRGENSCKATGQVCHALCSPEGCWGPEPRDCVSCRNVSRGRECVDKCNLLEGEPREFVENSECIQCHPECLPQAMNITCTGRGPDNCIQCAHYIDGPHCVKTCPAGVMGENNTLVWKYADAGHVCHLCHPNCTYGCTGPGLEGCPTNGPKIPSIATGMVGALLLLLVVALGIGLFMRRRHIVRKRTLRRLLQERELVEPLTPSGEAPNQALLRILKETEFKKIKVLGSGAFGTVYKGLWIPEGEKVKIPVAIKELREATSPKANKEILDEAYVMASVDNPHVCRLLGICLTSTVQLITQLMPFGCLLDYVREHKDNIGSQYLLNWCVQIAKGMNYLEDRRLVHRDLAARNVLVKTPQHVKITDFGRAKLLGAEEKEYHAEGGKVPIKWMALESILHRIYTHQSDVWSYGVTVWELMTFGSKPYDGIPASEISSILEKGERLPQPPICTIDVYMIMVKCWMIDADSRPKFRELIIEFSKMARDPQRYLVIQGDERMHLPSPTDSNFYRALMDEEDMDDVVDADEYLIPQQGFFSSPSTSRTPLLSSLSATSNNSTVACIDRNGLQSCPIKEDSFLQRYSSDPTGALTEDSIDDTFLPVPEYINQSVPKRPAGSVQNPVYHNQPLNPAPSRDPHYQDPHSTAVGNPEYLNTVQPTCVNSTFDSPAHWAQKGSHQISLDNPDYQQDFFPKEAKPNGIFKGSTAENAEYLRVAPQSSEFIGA

In the case of `C=CC(=O)N[C@@H]1CCCc2c(-c3cnc4ccccc4c3)c3c(N)ncnc3n2C1` [Compound I-9, (R)-N-(4-amino-5-(quinolin-3-yl)-7,8,9,10-tetrahydro-6H-pyrimido[5′,4′:4,5]pyrrolo[1,2-a]azepin-9-yl)acrylamide], the IC50 (usually the concentration that gives 50% inhibition) on EGFR (d746-750) turned out to be 270 nM; against EGFR (WT) it was 3600 nM; on EGFR (T790M/L858R), 160 nM; at EGFR (d746-750/T790M), 82 nM; at EGFR (L858R), 350 nM. For the same compound, the “inhibitory activities for EGFR (WT) compared with the mutant EGFR proteins, in words” value against EGFR (WT) was “lower than those for the above mutant EGFR proteins”. Further, the “inhibitory activities for EGFR (L858R), EGFR (d746-750), EGFR (T790M/L858R) and EGFR (d746-750/T790M), in words” value (“inhibitory activities for EGFR (L858R)” for short) at EGFR (T790M/L858R) is on record as “potent inhibitory activities”.

As for `Nc1ncnc2c1c(-c1cnc3ccccc3c1)c1n2C[C@@H](NC(=O)/C=C/Cl)CC1` [Compound I-5, (S,E)-N-(4-amino-5-(quinolin-3-yl)-6,7,8,9-tetrahydropyrimido[5,4-b]indolizin-8-yl)-3-chloroacrylamide], the IC50 on EGFR (d746-750) was 0.5 nM; at EGFR (WT), 5.9 nM; on EGFR (T790M/L858R), 0.4 nM; on EGFR (d746-750/T790M), 0.3 nM; at EGFR (L858R), 0.7 nM. Moreover, at EGFR (WT), the “inhibitory activities for EGFR (WT) compared with the mutant EGFR proteins, in words” value was “lower than those for the above mutant EGFR proteins”. The “inhibitory activities for EGFR (L858R)” value at EGFR (T790M/L858R) is given as “potent inhibitory activities”.

With `C=CC(=O)N[C@H]1CCc2c(-c3cnc4ccccc4c3)c3c(N)ncnc3n2C1` (single isomer, unassigned) [Compound I-2], the figures for the GI50 in experiment [1], in experiment [2] and in experiment [3] were 590 nM, 27 nM and 5 nM, respectively. Besides, the “growth-inhibitory activities for EGFR (WT)-expressing cells compared with cells expressing mutant EGFRs, in words” value in experiment [1] is “weaker growth-inhibitory activities”. For the same compound, the IC50 was found to be 0.4 nM on EGFR (d746-750); 4.3 nM against EGFR (WT); 0.3 nM at EGFR (T790M/L858R); 0.2 nM at EGFR (d746-750/T790M); 0.4 nM on EGFR (L858R). The “inhibitory activities for EGFR (WT) compared with the mutant EGFR proteins, in words” value at EGFR (WT) is reported as “lower than those for the above mutant EGFR proteins”. The “growth-inhibitory activities for EGFR (d746-750)-expressing and EGFR (T790M/L858R)-expressing cells, in words” value in experiment [2] is given as “potent growth-inhibitory activities”. The “inhibitory activities for EGFR (L858R)” value against EGFR (T790M/L858R) is recorded as “potent inhibitory activities”.

With `C=CC(=O)N(C)C1CCc2c(-c3cnc4ccccc4c3)c3c(N)ncnc3n2C1` (centres unmarked) [Compound I-3, N-(4-amino-5-(quinolin-3-yl)-6,7,8,9-tetrahydropyrimido[5,4-b]indolizin-8-yl)-N-methylacrylamide], the GI50 (in general, the concentration at which growth is held to half of that of the control) was 1800 nM in experiment [1], 86 nM in experiment [2] and 10 nM in experiment [3]. In experiment [1], the “growth-inhibitory activities for EGFR (WT)-expressing cells compared with cells expressing mutant EGFRs, in words” value is listed as “weaker growth-inhibitory activities”. Also, the IC50 at EGFR (d746-750) worked out at 1 nM; against EGFR (WT) it was 18 nM; at EGFR (T790M/L858R), 1.3 nM; at EGFR (d746-750/T790M), 0.6 nM; on EGFR (L858R), 1.3 nM. In addition, the “inhibitory activities for EGFR (WT) compared with the mutant EGFR proteins, in words” value against EGFR (WT) is “lower than those for the above mutant EGFR proteins”. Besides, the “growth-inhibitory activities for EGFR (d746-750)-expressing and EGFR (T790M/L858R)-expressing cells, in words” value in experiment [2] is “potent growth-inhibitory activities”. Besides, the “inhibitory activities for EGFR (L858R)” value at EGFR (T790M/L858R) was “potent inhibitory activities”.
